Assay results from ChEMBL document CHEMBL1137331 (J Med Chem, 2006).

Legend:
T-cell = test: Inhibition of anti CD3/anti CD28-induced T cell proliferation; type: functional, cell-based; details: Homo sapiens
[1] = biological target: Tyrosine-protein kinase Lck (Homo sapiens, UniProt P06239)
Description: Inhibition of human Lck in presence of ATP

[2] = biological target: Proto-oncogene tyrosine-protein kinase LCK (Mus musculus) (UniProt P06240); details: 50 uM
Description: Inhibition of murine Lck at 50 uM

[3] = biological target: Proto-oncogene tyrosine-protein kinase LCK (Mus musculus, UniProt P06240)
Proto-oncogene tyrosine-protein kinase LCK, sequence (P06240 whole entry): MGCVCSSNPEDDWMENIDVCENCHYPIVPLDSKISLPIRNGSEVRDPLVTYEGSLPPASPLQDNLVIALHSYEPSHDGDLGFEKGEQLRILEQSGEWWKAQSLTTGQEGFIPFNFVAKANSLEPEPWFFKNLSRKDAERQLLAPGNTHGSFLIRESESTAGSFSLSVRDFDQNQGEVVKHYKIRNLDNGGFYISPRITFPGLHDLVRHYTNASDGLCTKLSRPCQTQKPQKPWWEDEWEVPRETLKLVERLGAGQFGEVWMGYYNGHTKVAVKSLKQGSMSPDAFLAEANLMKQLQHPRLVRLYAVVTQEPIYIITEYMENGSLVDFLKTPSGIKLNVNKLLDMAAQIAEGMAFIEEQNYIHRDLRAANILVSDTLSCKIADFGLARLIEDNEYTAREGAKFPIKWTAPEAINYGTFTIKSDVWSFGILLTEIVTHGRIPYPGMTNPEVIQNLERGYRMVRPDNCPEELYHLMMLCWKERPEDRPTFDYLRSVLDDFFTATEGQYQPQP
Description: Inhibition of murine Lck in presence of ATP

[4] = biological target: Proto-oncogene tyrosine-protein kinase Src (Homo sapiens, UniProt P12931); test: Inhibition of Src in presence of ATP
Proto-oncogene tyrosine-protein kinase Src, sequence (P12931 2-536 limits assumed): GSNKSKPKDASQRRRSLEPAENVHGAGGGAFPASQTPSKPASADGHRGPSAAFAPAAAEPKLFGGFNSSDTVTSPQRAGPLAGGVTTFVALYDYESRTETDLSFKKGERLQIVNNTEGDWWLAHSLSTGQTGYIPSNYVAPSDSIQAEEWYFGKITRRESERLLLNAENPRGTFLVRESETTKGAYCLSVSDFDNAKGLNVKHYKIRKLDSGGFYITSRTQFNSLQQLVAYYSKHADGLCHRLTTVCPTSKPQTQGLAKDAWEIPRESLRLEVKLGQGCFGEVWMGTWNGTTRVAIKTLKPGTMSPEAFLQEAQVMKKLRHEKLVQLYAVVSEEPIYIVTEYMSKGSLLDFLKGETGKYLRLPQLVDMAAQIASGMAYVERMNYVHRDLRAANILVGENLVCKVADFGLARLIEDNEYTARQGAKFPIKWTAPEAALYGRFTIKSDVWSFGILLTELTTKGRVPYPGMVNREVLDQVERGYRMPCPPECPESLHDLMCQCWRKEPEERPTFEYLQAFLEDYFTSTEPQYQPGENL

Mus musculus [5] = test: Inhibition of anti CD3/anti CD28-induced IL2 production in po dosed BALB/c mouse; type: functional
[6] = biological target: Tyrosine-protein kinase Fgr (Homo sapiens, UniProt P09769); test: Inhibition of Fgr
Tyrosine-protein kinase Fgr, sequence (P09769 whole entry): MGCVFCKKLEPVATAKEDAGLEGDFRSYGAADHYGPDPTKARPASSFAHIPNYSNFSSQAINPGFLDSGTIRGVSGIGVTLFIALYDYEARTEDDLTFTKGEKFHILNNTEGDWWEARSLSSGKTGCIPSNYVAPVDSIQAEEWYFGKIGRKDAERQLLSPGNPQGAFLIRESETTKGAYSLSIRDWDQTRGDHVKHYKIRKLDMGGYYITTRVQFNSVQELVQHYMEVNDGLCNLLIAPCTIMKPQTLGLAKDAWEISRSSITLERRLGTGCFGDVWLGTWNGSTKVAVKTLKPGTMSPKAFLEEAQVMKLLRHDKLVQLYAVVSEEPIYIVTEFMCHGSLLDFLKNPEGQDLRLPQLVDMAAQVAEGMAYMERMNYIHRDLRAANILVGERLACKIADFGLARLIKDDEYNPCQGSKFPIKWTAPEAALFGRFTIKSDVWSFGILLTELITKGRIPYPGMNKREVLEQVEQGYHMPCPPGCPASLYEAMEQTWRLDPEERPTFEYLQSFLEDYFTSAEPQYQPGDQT

PBMC = test: Inhibition of LPS-induced TNFalpha production in human PBMC; type: functional, cell-based
Rattus norvegicus = test: Volume of distribution in rat at 10 mg/kg, iv and po; type: ADME, organism-based; parameters: dose 10 mg/kg, route oral; details: in vivo
[7] = biological target: Tyrosine-protein kinase Yes (Homo sapiens, UniProt P07947); test: Inhibition of Yes
Tyrosine-protein kinase Yes, sequence (P07947 whole entry): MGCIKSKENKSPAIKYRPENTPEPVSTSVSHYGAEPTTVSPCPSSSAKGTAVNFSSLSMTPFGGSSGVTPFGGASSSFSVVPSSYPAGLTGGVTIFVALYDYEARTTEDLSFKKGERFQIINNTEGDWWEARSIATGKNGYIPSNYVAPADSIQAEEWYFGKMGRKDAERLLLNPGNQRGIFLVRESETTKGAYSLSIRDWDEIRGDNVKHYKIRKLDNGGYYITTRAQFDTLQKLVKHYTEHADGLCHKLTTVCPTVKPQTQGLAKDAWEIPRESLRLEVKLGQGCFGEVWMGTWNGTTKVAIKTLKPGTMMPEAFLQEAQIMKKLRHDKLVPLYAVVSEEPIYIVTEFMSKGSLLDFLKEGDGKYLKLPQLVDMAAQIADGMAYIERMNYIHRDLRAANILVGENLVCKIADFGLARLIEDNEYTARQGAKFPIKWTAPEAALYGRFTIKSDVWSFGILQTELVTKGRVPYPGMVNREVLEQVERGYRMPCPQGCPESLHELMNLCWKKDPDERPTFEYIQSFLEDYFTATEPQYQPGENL

[8] = biological target: Tyrosine-protein kinase Lyn (Homo sapiens, UniProt P07948); test: Inhibition of Lyn
Tyrosine-protein kinase Lyn, sequence (P07948 whole entry): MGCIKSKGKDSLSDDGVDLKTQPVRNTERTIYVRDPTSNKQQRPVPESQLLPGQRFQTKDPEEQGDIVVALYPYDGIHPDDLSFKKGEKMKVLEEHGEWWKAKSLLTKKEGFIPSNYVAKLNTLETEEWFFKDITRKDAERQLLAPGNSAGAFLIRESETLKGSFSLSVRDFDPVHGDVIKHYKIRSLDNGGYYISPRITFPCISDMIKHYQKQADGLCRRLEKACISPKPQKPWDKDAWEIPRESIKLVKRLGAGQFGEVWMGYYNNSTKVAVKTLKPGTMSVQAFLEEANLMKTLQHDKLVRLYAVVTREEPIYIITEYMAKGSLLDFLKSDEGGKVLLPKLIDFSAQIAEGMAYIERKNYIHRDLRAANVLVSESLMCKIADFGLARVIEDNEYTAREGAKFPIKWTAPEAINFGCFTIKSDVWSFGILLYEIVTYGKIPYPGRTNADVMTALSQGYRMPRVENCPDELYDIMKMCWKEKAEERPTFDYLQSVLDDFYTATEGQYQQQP

[9] = biological target: Receptor tyrosine-protein kinase erbB-2 (Homo sapiens, UniProt P04626); test: Inhibition of Her2
[10] = biological target: Fibroblast growth factor receptor 1 (Homo sapiens, UniProt P11362); test: Inhibition of FGFR1
Fibroblast growth factor receptor 1, sequence (P11362 whole entry): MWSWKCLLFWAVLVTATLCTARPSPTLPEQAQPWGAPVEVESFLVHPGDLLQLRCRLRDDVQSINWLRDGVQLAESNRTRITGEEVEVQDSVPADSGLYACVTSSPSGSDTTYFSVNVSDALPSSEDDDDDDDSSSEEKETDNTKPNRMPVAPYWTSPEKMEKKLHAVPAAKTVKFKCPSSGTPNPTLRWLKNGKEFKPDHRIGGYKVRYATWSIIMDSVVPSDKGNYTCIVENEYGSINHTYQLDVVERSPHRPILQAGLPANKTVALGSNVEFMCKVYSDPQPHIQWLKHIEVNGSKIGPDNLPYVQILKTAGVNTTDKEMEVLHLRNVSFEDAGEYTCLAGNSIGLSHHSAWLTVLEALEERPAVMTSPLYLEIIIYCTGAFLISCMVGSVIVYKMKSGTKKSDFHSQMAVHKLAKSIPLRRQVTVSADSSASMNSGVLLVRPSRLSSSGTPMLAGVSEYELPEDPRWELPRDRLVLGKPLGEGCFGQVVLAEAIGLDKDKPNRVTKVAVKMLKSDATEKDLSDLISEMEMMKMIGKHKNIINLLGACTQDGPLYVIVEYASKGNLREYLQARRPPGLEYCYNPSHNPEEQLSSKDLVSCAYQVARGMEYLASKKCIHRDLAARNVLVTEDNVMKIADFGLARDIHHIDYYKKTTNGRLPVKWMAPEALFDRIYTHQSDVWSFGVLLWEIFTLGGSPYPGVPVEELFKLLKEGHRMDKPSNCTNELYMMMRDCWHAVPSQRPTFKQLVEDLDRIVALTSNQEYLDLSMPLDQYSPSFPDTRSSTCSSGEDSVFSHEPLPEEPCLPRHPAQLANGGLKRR

Mus musculus [11] = test: Inhibition of LPS-induced TNFalpha production in C57BL/6 mouse at 60 mg/kg, po; details: C57BL/6, po

Tyrosine-protein kinase Lck, sequence (P06239 whole entry): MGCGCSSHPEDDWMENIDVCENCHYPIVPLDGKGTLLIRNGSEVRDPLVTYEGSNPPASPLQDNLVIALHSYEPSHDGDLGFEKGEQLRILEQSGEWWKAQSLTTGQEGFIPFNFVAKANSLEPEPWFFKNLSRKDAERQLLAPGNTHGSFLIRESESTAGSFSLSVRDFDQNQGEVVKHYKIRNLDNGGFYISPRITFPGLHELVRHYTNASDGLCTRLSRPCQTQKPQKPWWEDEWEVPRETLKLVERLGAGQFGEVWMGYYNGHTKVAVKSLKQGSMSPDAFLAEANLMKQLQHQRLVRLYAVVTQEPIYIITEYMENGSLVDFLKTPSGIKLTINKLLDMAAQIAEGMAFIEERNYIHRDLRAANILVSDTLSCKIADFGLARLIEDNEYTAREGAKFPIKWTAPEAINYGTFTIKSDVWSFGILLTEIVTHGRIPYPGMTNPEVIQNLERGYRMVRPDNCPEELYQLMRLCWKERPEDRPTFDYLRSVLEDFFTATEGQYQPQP
Proto-oncogene tyrosine-protein kinase LCK (Mus musculus), sequence (P06240 2-509 limits assumed): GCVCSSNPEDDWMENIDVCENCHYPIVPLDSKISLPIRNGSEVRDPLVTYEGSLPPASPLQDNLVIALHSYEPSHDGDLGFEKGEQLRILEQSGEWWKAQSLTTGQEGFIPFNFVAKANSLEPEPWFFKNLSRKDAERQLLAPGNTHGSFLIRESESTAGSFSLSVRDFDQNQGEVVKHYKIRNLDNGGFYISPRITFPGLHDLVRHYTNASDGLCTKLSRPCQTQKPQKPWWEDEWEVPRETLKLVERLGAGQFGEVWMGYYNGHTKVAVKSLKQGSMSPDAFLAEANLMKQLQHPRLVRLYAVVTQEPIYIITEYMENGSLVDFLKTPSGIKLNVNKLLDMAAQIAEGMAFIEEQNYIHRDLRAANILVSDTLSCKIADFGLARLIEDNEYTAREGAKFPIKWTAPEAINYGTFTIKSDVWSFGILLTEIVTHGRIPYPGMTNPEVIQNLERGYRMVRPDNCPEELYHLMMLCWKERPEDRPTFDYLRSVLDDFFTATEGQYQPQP

Cc1nc(NCCCN2CCOCC2)cc(Nc2ncc(C(=O)Nc3c(C)cccc3Cl)s2)n1
IC50 (T-cell): 7 nM
IC50 [1]: 0.7 nM

Cc1cc(C)c(NC(=O)c2sc(NC(=O)c3ccoc3)nc2C)c(C)c1
IC50 [1]: 1200 nM

Cc1cccc(Cl)c1NC(=O)c1cnc(NC(=O)c2cccs2)s1
IC50 [1]: 2230 nM

Cc1cccc(Cl)c1NC(=O)c1cnc(NC(=O)c2ccsc2)s1
IC50 (T-cell): > 2000 nM
IC50 [1]: 17 nM

Cc1nc(NCCO)cc(Nc2ncc(C(=O)Nc3c(C)cccc3Cl)s2)n1
IC50 (T-cell): 23 nM
IC50 [1]: 0.2 nM

Cc1cccc(Cl)c1NC(=O)c1cnc(Nc2cc(N3CCOCC3)ncn2)s1
IC50 (T-cell): 3 nM
IC50 [1]: 0.5 nM

Cc1cc(C)c(NC(=O)c2cnc(Nc3ccccn3)s2)c(C)c1
IC50 (T-cell): 510 nM
IC50 [1]: 5 nM

Cc1cccc(Cl)c1NC(=O)c1sc(NC(=O)c2ccsc2)nc1C
IC50 [1]: 390 nM

Cc1cc(C)c(NC(=O)c2sc(N)nc2C)c(C)c1
IC50 (T-cell): > 10000 nM

Cc1nc(NC(=O)OC(C)(C)C)sc1C(=O)Nc1ccccc1
inhibition [2]: 28%

Cc1cccc(Cl)c1NC(=O)c1cnc(Nc2cccnc2)s1
IC50 (T-cell): 870 nM
IC50 [1]: 6.7 nM

Cc1nc(Nc2ncc(C(=O)Nc3c(C)cccc3Cl)s2)cc(N2CCC(CO)CC2)n1
IC50 (T-cell): 4 nM
IC50 [1]: 0.7 nM

Cc1cc(C)c(NC(=O)c2sc(NC(=O)c3ccsc3)nc2C)c(C)c1
IC50 [1]: 180 nM

Cc1cc(C)nc(Nc2ncc(C(=O)Nc3c(C)cccc3Cl)s2)c1
IC50 (T-cell): 140 nM
IC50 [1]: 4 nM

Cc1cccc(C)c1NC(=O)c1cnc(Nc2ccccn2)s1
IC50 (T-cell): 180 nM
IC50 [1]: 1.2 nM

Cc1cc(C)c(NC(=O)c2cnc(Nc3cnccn3)s2)c(C)c1
IC50 (T-cell): 500 nM
IC50 [1]: 4.9 nM

Cc1ccnc(Nc2ncc(C(=O)Nc3c(C)cccc3Cl)s2)c1
IC50 (T-cell): 80 nM
IC50 [1]: 0.5 nM

Cc1cccc(Cl)c1NC(=O)c1cnc(Nc2cccc(NCCO)n2)s1
IC50 (T-cell): 75 nM
IC50 [1]: < 0.2 nM

Cc1nc(Nc2ncc(C(=O)Nc3c(C)cccc3Cl)s2)cc(N2CCN(CCO)CC2)n1 [DASATINIB]
IC50 (T-cell): 3 nM

Cc1cc(C)c(NC(=O)c2sc(NC(=O)Nc3ccccc3)nc2C)c(C)c1
IC50 [3]: 90 nM
IC50 [1]: 160 nM

Cc1cc(C)c(NC(=O)c2sc(NC(=O)NC(C)(C)C)nc2C)c(C)c1
IC50 [1]: 1300 nM

Cc1cc(C)c(NC(=O)c2cnc(Nc3cc(C)nc(C)n3)s2)c(C)c1
IC50 (T-cell): 140 nM
IC50 [1]: 3 nM

Cc1cc(C)c(NC(=O)c2sc(NC(=O)OCc3ccccc3)nc2C)c(C)c1
IC50 [3]: 33300 nM

Cc1cccc(C)c1NC(=O)c1cnc(Nc2cccnn2)s1
IC50 (T-cell): 350 nM
IC50 [1]: 0.3 nM

Cc1ccc(NC(=O)c2sc(NC(=O)OC(C)(C)C)nc2C)c(C)c1
IC50 [3]: 27400 nM

Cc1cc(C)c(NC(=O)c2sc(NC(=O)NCc3ccccc3)nc2C)c(C)c1
IC50 [3]: 100 nM
IC50 [1]: 130 nM

Cc1cccc(Cl)c1NC(=O)c1cnc(NC(=O)C2CCCC2)s1
IC50 [1]: 1340 nM

Cc1cccc(Cl)c1NC(=O)c1cnc(Nc2ccncc2)s1
IC50 (T-cell): 270 nM
IC50 [1]: 9.4 nM

Cc1nc(Nc2ncc(C(=O)Nc3c(C)cccc3Cl)s2)cc(N2CCOCC2)n1
IC50 (T-cell): 5 nM
IC50 [1]: 1.3 nM

CC(=O)Nc1nc(C)c(C(=O)Nc2c(C)cc(C)cc2C)s1
IC50 [3]: 510 nM
IC50 [1]: 480 nM

Cc1cnc(Nc2ncc(C(=O)Nc3c(C)cccc3Cl)s2)c(C)n1
IC50 (T-cell): 570 nM
IC50 [1]: 6.3 nM

Cc1cc(C)nc(Nc2ncc(C(=O)Nc3c(C)cccc3Cl)s2)n1
IC50 [1]: 50 nM

Cc1cccc(Cl)c1NC(=O)c1cnc(Nc2cccc(NCCCN3CCOCC3)n2)s1
IC50 (T-cell): 8 nM
IC50 [1]: 0.5 nM

Cc1cccc(Cl)c1NC(=O)c1cnc(Nc2cccc(NCCCn3ccnc3)n2)s1
IC50 (T-cell): 2 nM
IC50 [1]: < 0.5 nM

Cc1cccc(Cl)c1NC(=O)c1cnc(Nc2cccnn2)s1
IC50 (T-cell): 350 nM
IC50 [1]: 4 nM

Cc1cccc(Cl)c1NC(=O)c1sc(NC(=O)c2cccs2)nc1C
IC50 [1]: 130 nM

Cc1cccc(Nc2ncc(C(=O)Nc3c(C)cccc3Cl)s2)n1
IC50 (T-cell): 110 nM
IC50 [1]: 0.6 nM

Cc1cc(C)c(NC(=O)c2sc(NC(=O)C(C)(C)C)nc2C)c(C)c1
IC50 [1]: 12100 nM

Cc1cccc(Cl)c1NC(=O)c1cnc(Nc2ccccn2)s1
IC50 (T-cell): 140 nM
IC50 [1]: 1.2 nM

Cc1cccc(Cl)c1NC(=O)c1cnc(NC(=O)C2CC2)s1
IC50 (T-cell): 884 nM

Cc1cc(Nc2ncc(C(=O)Nc3c(C)cccc3Cl)s2)nc(C)n1
IC50 (T-cell): 80 nM
IC50 [4]: < 2 nM
ED50 (Mus musculus [5]): 5 mg/kg
IC50 [6]: 0.8 nM
IC50 (PBMC): 670 nM
Vss (Rattus norvegicus): 12 L/kg
IC50 [7]: 2 nM
IC50 [8]: 4 nM
IC50 [9]: 500 nM
IC50 [10]: > 10 µM
Ki [3]: 0.13 nM
IC50 [1]: 1 nM
inhibition in vivo at 60 mg/kg (Mus musculus [11]): 90%
